3 compounds from PubChem BioAssay AID1963835 (Molecular Pharmacology Branch, DTP, NCI, 2024) can be followed below.

This experiment deals with 699152-130-R-J1-PDC complex spheroid viability. Description: Anticancer human tumor 699152-130-R-J1-PDC patient-derived pancreatic carcinoma cell line growth inhibition [POLQ]. The following applies: for viability, T/C: stronger effect = lower value. The method, then: Multicellular complex tumor spheroid response to Polymerase (POL) inhibitors (novobiocin, ART-558, RP6685) in combination with a variety of drugs and investigational agents in selected tumor cell lines
The POL inhibitors (novobiocin, ART-558, and RP6685) were evaluated both individually and in combination with standard of care and investigational anticancer small molecules within a complex spheroid model of solid tumors. . Complex spheroids include a stromal component modeled by human endothelial cells (HUVEC) and fibroblasts modeled by human mesenchymal stem cells (MSCs). The concentration ranges selected for each drug and investigational agent were based upon clinically achievable concentrations if the clinical Cmax of the agent was known.
Compounds. The drugs and investigational agents: novobiocin (NSC847541), ART-558 (NSC835418), RP-6685 (NSC848927), peposertib (NSC802822), ceralasertib (NSC780249), elimusertib (NSC800525), camonsertib (NSC841442), AZD-1390 (NSC803789), olaparib (NSC753686), talazoparib (NSC767125), rucaparib (NSC756644), sotorasib (NSC818433), MRTX-1133 (NSC836407), SN-38 (NSC673596), topotecan (NSC609699), epotoside (NSC141540), doxorubicin (NSC123127), gemcitabine (NSC613327), 5-fluorouracil (NSC19893), paclitaxel (NSC125973), vemurafenib (NSC761431), MSA-2 (NSC828583), SN-011 (NSC837082), adavosertib (NSC754352), prexasertib (NSC758257), carboplatin (NSC241240) and oxaliplatin (NSC266046), were obtained from the National Cancer Institute (NCI) Developmental Therapeutics Program Chemical Repository (21). The FDA-approved anticancer drug set is available from the Developmental Therapeutics Program at https://dtp.cancer.gov/organization/dscb/obtaining/. […] The stock solutions were prepared in dimethyl sulfoxide (DMSO, Sigma-Aldrich, St. Louis, MO, cat. D2650), except for the platinum compounds which were prepared in saline (Quality Biological, Gaithersburg, MD, cat. 114-055-101), at 800-fold the tested concentration and stored at -70 degrees C prior to their use. All drugs and investigational agents were tested over a range starting from a high concentration at or near the clinical Cmax and decreasing in half-log increments. If the clinical Cmax for an agent had not been determined, the highest concentration tested was 10 microM, except for SN-38, which was tested at a high concentration of 1 microM.
Cell Culture. All cells were maintained in an incubator at 37 degrees C and 5% CO2 with 95% humidity. The PDC lines were cultured according to standard operating procedures established by the NCI PDMR (https://pdmr.cancer.gov). Table 3 of the manuscript, lists the cell lines along with the number of the three cell types plated to form the mct-spheroids and media for tumor cell growth. After thawing, all PDC lines, except 997537-175-T-J1-PDC and 415267-285-R-J2-PDC, were cultured in Matrigel-coated flasks prepared with a working solution of 1X Ham's F-12 nutrient mix, without supplementation (Thermo Fisher Scientific, cat. 11765054), 100 U/mL penicillin-streptomycin (Thermo Fisher Scientific, cat. 15140122), and 2.5% Matrigel (Corning Inc., Corning, NY, cat. 354248) for the first three passages. The two PDC lines 997537-175-T-J1-PDC and 415267-285-R-J2-PDC were cultured on uncoated flasks. The 857933-349-R-J2-PDC line was cultured in 6C/Colon 1B media containing advanced DMEM/F-12 (Thermo Fisher Scientific, cat. 12634028), 10 mM HEPES (Thermo Fisher Scientific, cat. 15630080), 1X GlutaMAX supplement (Thermo Fisher Scientific, cat. 35050061), 0.1 mg/mL primocin (InvivoGen, San Diego, CA, cat. ant-pm-2), 10% defined fetal bovine serum, heat inactivated (HyClone Laboratories Inc., Logan, UT, cat. SH30070.03HI), 50% L-WRN conditioned media (ATCC, cat. CRL-3276), 1.25 mM N-Acetyl-L-cysteine (Sigma-Aldrich, cat. A9165), 10 mM nicotinamide (Sigma-Aldrich, cat. N0636), 1X B-27 supplement (Thermo Fisher Scientific, cat. 17504044), 1X N-2 supplement (Thermo Fisher Scientific, cat. […]

“And” between values parts separate entries of the source, which are not always exact repeats. Equal entries are not always repeated.
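Also: spheroids exposed to agents for 7 days before viability reading.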
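For viability, T/C in this document: percent of DMSO vehicle control viability so 100% = vehicle and 0% = no viable signal.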

Turning to `O=C(c1cc(Cc2n[nH]c(=O)c3ccccc23)ccc1F)N1CCN(C(=O)C2CC2)CC1`, the viability, T/C (commonly the result in the treated group divided by that in the control group, in per cent) by setting is: (compound 0.0316 µM) 101% and 104% and 103%; (compound 0.1 µM) 99.6% and 92.1% and 91.6%; (compound 0.316 µM) 100% and 98% and 95.9%; (compound 1 µM) 93.5% and 90.7% and 103%; (compound 3.16 µM) 91.4% and 87.8% and 91.5%; (compound 10 µM) 71.4% and 59.8% and 88.3%. Further, where the note is “curve of compound”, the IC50 (as a rule, the concentration at which inhibition is half-maximal) was > 10 µM.

Regarding `CC(C)n1c(=O)n(C)c2cnc3cc(F)c(-c4ccc(OCCCN5CCCCC5)nc4)cc3c21` + Cc1cccc(N(C)C(=O)C2C(O)CCN2c2nc(C)cc(C(F)(F)F)c2C#N)c1, the IC50 was > 10 µM (curve of first compound, second compound 0.0316 µM); > 10 µM (curve of first compound, second compound 0.1 µM); > 10 µM (curve of first compound, second compound 0.316 µM); > 10 µM (curve of first compound, second compound 1 µM); > 10 µM (curve of first compound, second compound 3.16 µM); > 10 µM (curve of first compound, second compound 10 µM). Moreover, the viability, T/C runs as follows: (second compound 0.0316 µM, first compound 0.0316 µM) 94.9%; (second compound 0.0316 µM, first compound 0.1 µM) 98.5%; (second compound 0.0316 µM, first compound 0.316 µM) 100%; (second compound 0.0316 µM, first compound 1 µM) 110%; (second compound 0.0316 µM, first compound 3.16 µM) 107%; (second compound 0.0316 µM, first compound 10 µM) 83.2%. The viability, T/C reads like this: (second compound 0.1 µM, first compound 0.0316 µM) 97.3%; (second compound 0.1 µM, first compound 0.1 µM) 101%; (second compound 0.1 µM, first compound 0.316 µM) 112%; (second compound 0.1 µM, first compound 1 µM) 109%; (second compound 0.1 µM, first compound 3.16 µM) 104%; (second compound 0.1 µM, first compound 10 µM) 98.3%. Besides, the viability, T/C is, setting by setting: (second compound 0.316 µM, first compound 0.0316 µM) 111%; (second compound 0.316 µM, first compound 0.1 µM) 94.2%; (second compound 0.316 µM, first compound 0.316 µM) 104%; (second compound 0.316 µM, first compound 1 µM) 118%; (second compound 0.316 µM, first compound 3.16 µM) 114%; (second compound 0.316 µM, first compound 10 µM) 94.8%. Further, the viability, T/C reads like this: (second compound 1 µM, first compound 0.0316 µM) 113%; (second compound 1 µM, first compound 0.1 µM) 116%; (second compound 1 µM, first compound 0.316 µM) 98.7%; (second compound 1 µM, first compound 1 µM) 121%; (second compound 1 µM, first compound 3.16 µM) 113%; (second compound 1 µM, first compound 10 µM) 87.3%. Also, the viability, T/C is 104% (second compound 3.16 µM, first compound 0.0316 µM); 116% (second compound 3.16 µM, first compound 0.1 µM); 103% (second compound 3.16 µM, first compound 0.316 µM); 104% (second compound 3.16 µM, first compound 1 µM); 112% (second compound 3.16 µM, first compound 3.16 µM); 78.7% (second compound 3.16 µM, first compound 10 µM). Moreover, the viability, T/C by setting is: (second compound 10 µM, first compound 0.0316 µM) 98.1%; (second compound 10 µM, first compound 0.1 µM) 84.4%; (second compound 10 µM, first compound 0.316 µM) 123%; (second compound 10 µM, first compound 1 µM) 111%; (second compound 10 µM, first compound 3.16 µM) 106%; (second compound 10 µM, first compound 10 µM) 84.7%.

On to `O=C(Nc1ccc(O)c(NS(=O)(=O)c2ccc(F)cc2)c1)c1ccc(-c2ccccc2)cc1`, for which the viability, T/C is, setting by setting: (compound 0.0316 µM) 114% and 90.3% and 92.6%; (compound 0.1 µM) 104% and 94.2% and 112%; (compound 0.316 µM) 101% and 103% (2×); (compound 1 µM) 102% and 109% and 107%; (compound 3.16 µM) 106% and 108% and 112%; (compound 10 µM) 71.6% and 70% and 81.6%. In addition, where the note is “curve of compound”, the IC50 is > 10 µM.
